Source: patent US9345744B2, “Peptide-based collagen modulators for wound healing and tissue repair” (MUSC FOUNDATION FOR RESEARCH DEVELOPMENT, priority 2012, dated 2016)
“Also recorded” adds a separate entry of the source. Read-outs that look alike come from different tables or passages of the source.

Columns and labels:
[1] = tested on: Sprague Dawley rats, latissimus dorsi muscle; assay: Silicon wafer implant with exogenous ATP or apyrase, histology at 24 hours; assay type: in vivo, rat; conditions: for inflammatory infiltrate in the implant region: implant plus exogenous agent
From the text: FIG. 16. A composite panel of microscopy images taken from H&E stained sections of muscle tissue adjacent to the silicon implant. […] The other images in the panel are high magnification showing areas of high inflammation and necrosis bottom two panels and relatively low inflammation away from the implant site, upper right. The top right set of images is from the tissue adjacent to the implant that had also been treated with exogenous ATP. […] And that by modulating the ATP signal we can potentially modulate the initial inflammatory reaction.
15 male Sprague Dawley rats underwent unilateral implantation of silicon wafer implants. Three animals received implants only, three received implants plus exogenous ATP, three received implants plus exogenous apyrase, an enzyme that scavenges ATP, three underwent surgery alone without an implant, and three received a percutaneous injection of exogenous ATP into the latissimus dorsi muscle. The implants were harvested after 24 hours to evaluate the extent of inflammatory infiltrate and preservation of muscle.

HMVECs = assay: ATP release from endothelial cells; assay type: cell-based, human
Procedure: FIG. 15. ATP is released from endothelial cells in response to low Ca^2+ and the inflammatory cytokine IL-6. HMVECs were treated for 5 hours with either nothing or IL-6 (0.01 ng/mL). After the 5 hr incubation, HBSS (w/Ca^2+ and Mg^2+)—25 mM HEPES was added to one set of controls (“Control”) and the IL-6 treated cells for 5 min. To the other set of control wells, HBSS (w/o Ca^2+ and Mg^2+)—25 mM HEPES was added as a positive control for Cx43 hemichannel-mediated ATP release (“Low Ca^2+”). The error bars represent the standard error for replicates within the same experiment.
The possibility that Cx43 acts as a mediator of inflammation through hemichannel mediated release of ATP was further examined Studies on ATP release in the HeLa cell models, as well as primary human microvascular endothelial cells (HMVECs), were performed. […] However, the inventors also observed that, in preliminary experiments, ATP released in response to low Ca^2+ was not inhibited by treatment with mefloquine, a commonly used connexin channel blocker. Endothelial cells may also release ATP through vesicular exocytotic mechanisms in a Ca^2+ dependent manner (Bodin and Burnstock, 2001; McDonald et al., 2010). Pannexin channels, which can also mediate ATP release, are similarly sensitive to mefloquine (Lohman et al., 2012; Bodin et al, 2001).

[2] = tested on: neonatal rat cardiac fibroblast cells; assay: Western blot of collagen type I in conditioned media and cell lysates of peptide-treated neonatal cardiac fibroblasts; assay type: cell-based
From the text: Isolation and treatment of Neonatal Cardiac Fibroblasts with Cx43 based peptides (peptides used included ACT1, JM1, JM2, Antenapedia [ANT], reverse ACT1 [Rev], poly Arginine [poly r]). Neonatal cardiac fibroblasts (NHFs) were isolated from 3-4 day old rat hearts by collagenase digestion (100 U/mL) and differential attachment as previously described (Borg et al., 1984). All cells were maintained in Dulbecco's Modified Eagle Medium (DMEM) supplemented with 10% Fetal Bovine Serum and 100 U/mL penicillin G and 100 μg/mL streptomycin and used prior to passage four. For experiments, 40,000 NHFs were plated into the wells of a 24-well tissue culture plate and grown for 24-48 hours. On the day of treatment, media was removed from each well and replaced with fresh media containing 50 μg/mL L-ascorbic acid-2-phosphate; Sigma Chemical Co., St. Louis, Mo.). The appropriate volume of each peptide (resuspended in sterile, deionized 18 MΩ resistivity water) was added to achieve the desired final concentration (30, 90, 180 μM peptide concentrations were tested). Culture plates were incubated overnight in a 37° C. incubator with 5% CO2.
Conditioned culture media was collected from each well and stored at −20° C. for analysis of soluble collagen. Cellular protein, including insoluble collagen and collagen still within the NHFs, were isolated by adding 100-200 μL of cell lysis buffer (0.01 M Tris, pH 7.4, 0.001 M Sodium Orthovanadate, 1% sodium dodecylsulfate [SDS]) to each well and incubating 10 minutes at room temperature. Prior to addition, cell lysis buffer was warmed to facilitate solubilzation of SDS and 100 μL of Halt protease inhibitor (Pierce Biotechnology, Rockford, Ill.) was added per 10 mL buffer to be used. […] Protein concentrations of cell lysates were determined using a Micro BCA assay (Pierce). […] The presence of collagen was determined by probing the membranes with a rabbit anti-mouse collagen type I antibody (MD Biosciences) at 1:20,000 dilution in blocking buffer (5% milk in Tris-buffered saline) followed by a goat anti-rabbit IgG horseradish peroxidase conjugated antibody at 1:100,000 (Southern Biotech Associates) and detection with Pierce SuperSignal Femto West detection reagent (Pierce).
To assess the activity of JM1 and JM2 peptides with respect to collagen production and their potential in mediating wound healing, cardiac fibroblasts were treated with these two peptides and their effectiveness compared to that for the previous described Cx43 peptide ACT1. NHFs were treated with various concentrations of JM1, JM2, ACT1, and ANT (Antenapedia) peptides, vehicle (water) or left untreated and the production of collagen both in the culture media and cell-associated collagen assessed by western blotting. […]

adult mouse skin wound = conditions: cited from earlier work
[3] = tested on: neonatal mouse skin wound; conditions: cited from earlier work
Cx43 hemichannel = molecular target: T1, Cx43 hemichannel (Homo sapiens, UniProt P17302); conditions: Rhett et al., 2011; cited from earlier work
T1 construct: expressed in transfected cells
T1 sequence (P17302 whole entry): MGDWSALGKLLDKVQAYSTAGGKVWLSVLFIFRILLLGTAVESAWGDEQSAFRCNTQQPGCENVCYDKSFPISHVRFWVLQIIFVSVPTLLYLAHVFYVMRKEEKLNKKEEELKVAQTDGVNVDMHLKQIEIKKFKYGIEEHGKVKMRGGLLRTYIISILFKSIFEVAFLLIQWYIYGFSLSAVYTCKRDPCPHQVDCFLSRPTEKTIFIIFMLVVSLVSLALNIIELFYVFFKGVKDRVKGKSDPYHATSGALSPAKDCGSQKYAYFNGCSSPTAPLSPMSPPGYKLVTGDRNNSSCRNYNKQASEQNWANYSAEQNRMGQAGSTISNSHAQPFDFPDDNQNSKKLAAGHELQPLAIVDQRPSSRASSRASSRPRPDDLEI

NIH-3T3 cells = conditions: 30 μM, cited from earlier work
[4] = tested on: U87 MG glioblastoma cells; conditions: cited from earlier work
[5] = tested on: Sprague-Dawley rats with silicone disks; conditions: cited from earlier work
adult rat brain injury = conditions: 100 μM in 2% collagen vehicle; cited from earlier work
[6] = tested on: myocytes from neonatal rats; conditions: 30 μM, 5 days; cited from earlier work
ARPE19 cell = conditions: cited from earlier work
CD1 mice, LV cryo-injury = conditions: cited from earlier work
[7] = tested on: C57BL/6 mouse, laser-induced CNV; conditions: cited from earlier work
C6 glioma cell line = conditions: cited from earlier work
[8] = tested on: implants in skeletal muscle; assay: Inflammatory infiltrate at implants, myeloperoxidase stain; assay type: in vivo; conditions: 24 hour time point
From the text: In attempting to quantify the neutrophil infiltrate using a myeloperoxidase stain, the inventors observed that some of the cells stained darker than others. Upon further investigation, these cells were not neutrophils as but rather were macrophages.

rat skin wound = conditions: cited from earlier work
SD rat cornea = conditions: cited from earlier work
[9] = cited from earlier work

## Nc1ncnc2c1ncn2[C@@H]1O[C@H](COP(=O)(O)OP(=O)(O)OP(=O)(O)O)[C@@H](O)[C@H]1O [ATP]
[1]
  inflammatory infiltrate in the implant region: profound increase in inflammatory infiltrate
[1]; percutaneous injection, no implant
  inflammatory infiltrate in skeletal muscle: more inflammatory infiltrate than the surgery alone; also recorded: causes significant inflammation

## OC(c1cc(C(F)(F)F)nc2c(C(F)(F)F)cccc12)C1CCCCN1 (stereo not shown) [mefloquine]
HMVECs; treatment with blocker, preliminary experiments
  ATP released in response to low Ca2+: not inhibited

## IL-6: the inflammatory cytokine IL-6
HMVECs; IL-6 0.01 ng/mL, 5 hours
  ATP release: increased ATP release

## RQPKIWFPNRRKPWKKRPRPDDLEI [ACT1, Cx43 carboxyl-terminal peptide incorporating aas 373 to 382 of Cx43, U.S. Pat. No. 7,786,074]
[2]; 30, 90, 180 μM, overnight
  secretion/production of mature, fully processed type I collagen (conditioned media): decreased levels of fully processed collagen I a1 chains; also recorded: dose-dependent reduction
[2]; ACT1, highest doses of JM1 and JM2
  higher molecular weight collagen species in cell lysate: absence of higher molecular weight collagen species
[2]; cell lysates, JM1, JM2 at maximum dose tested
  mature / processed type I collagen in NHF cell lysate: slight decreases in processed collagen I a1 chains
[2]; cultured fibroblasts, FIGS. 1 and 2
  collagen synthesis, processing and secretion from fibroblasts: reduced collagen processing and secretion
Adult mouse skin wound; 100 μM in 30% pluronic gel, 10-14 day time course
  closure, inflammation, healing and scarring of excisional injuries: closed faster, were less inflamed in appearance, healed faster and scarred less
Adult mouse skin wound; 7 and 10 days post-wounding
  scarring/overall appearance: significantly improved
Adult mouse skin wound; 24 hr and 4 days post-wounding
  wound redness: significantly decreased
Adult mouse skin wound; 24 hr, 4, 7 and 10 days
  wound size: significantly smaller in size
[3]; 60 μM in 20% pluronic gel, 48 hours
  wound closure, inflammation, swelling: significantly more closed, less inflamed, less swollen
[3]; 60 μM, 7 days
  wound appearance / scarring: smoother and less scarred appearance
Cx43 hemichannel
  Cx43 hemichannel activity: inhibits Cx43 hemichannel activity
NIH-3T3 cells; 24 hours
  repopulation of scratch injury: few cells repopulating the area
NIH-3T3 cells
  proliferation of the cells: reduced proliferation
[4]; Boyden chamber
  motility across a porous membrane: significantly decreased
[4]
  aggregation: higher degree of aggregation
[5]; capsulectomies days 1-28
  neutrophil infiltration: attenuating neutrophil infiltration
[5]; rat, in vivo
  presence of contractile myofibroblasts: reducing the continued presence of contractile myofibroblasts
  type I collagen deposition around the implant: reducing type I collagen deposition around the implant
  vascularity of the capsule tissue: increasing vascularity of the capsule tissue
Adult rat brain injury
  NeuN immunolabeled neurons proximal to the HFM: higher numbers
  density of GFAP-positive astrocytes adjacent the HFM: much lower density
[6]
  extent of Cx43 gap junction formation between myocytes: greatly increased
ARPE19 cell; pre-treatment with peptide
  VEGF-dependent drop in TER: ameliorated the drop in TER; also recorded: blocked
CD1 mice, LV cryo-injury; 8 week time course
  LV diastolic and systolic function: significant improvement
CD1 mice, LV cryo-injury; mouse, in vivo
  scar uniformity: significantly increased scar uniformity
CD1 mice, LV cryo-injury; pacing and S1-S2 protocols
  frequency and severity of arrhythmias: dramatically reduced
[7]; relative to PBS controls
  CNV lesion size / injury spread: significantly reduced; also recorded: reduced CNV injury spread
[7]; relative to controls
  retinal function (ERG): improved retinal function
C6 glioma cell line; C6, Boyden chamber
  motility across a porous membrane: significantly decreased
C6 glioma cell line; C6
  adhesive properties: did not change
  cell morphology: altered morphology
[8]
  primary inflammatory infiltrate: macrophages
Rat skin wound; 150 μM peptide, 30 days
  scar area and scar tissue volume / scar size: significantly (p<0.05) smaller
Rat skin wound; versus the other 4 wounds
  wound closure rates: significantly faster closure rates
SD rat cornea; 24 hrs
  corneal re-epithelialization: re-epithelializing much faster than control corneas
SD rat cornea; 72 hrs
  corneal re-epithelialization: significantly greater re-epithelialization
SD rat cornea; rat, in vivo
  corneal closure and regeneration: faster closure and more complete corneal regeneration
[9]; 100 uM, corneal application, 20 and 40 minutes
  peptide in aqueous humor (anterior chamber): detectable level
[9]; 20 and 40 minutes
  peptide in vitreous humor (posterior chamber), Western blotting: Lower levels of peptide could also be detected
[9]; corneal application
  peptide in retinal pigment epithelial layer: detectable in the retinal pigment epithelial layer

## VEGF
ARPE19 cell; VEGF alone, by 4 hours post-application
  TER: significantly (p<0.05) reduces TER; also recorded: rapid deterioration

## apyrase
[1]
  inflammatory infiltrate in the implant region: significantly reduced the inflammatory infiltrate; also recorded: marked decrease in inflammatory infiltrate
